Reference: publication PMC3676766, “New Radioligands for Describing the Molecular Pharmacology of MT1 and MT2 Melatonin Receptors” (International Journal of Molecular Sciences, 2013)
Values joined by “and” are separate entries in the source; they are usually repeats but may differ in a detail not shown here. Equal values may be shown once. Read-outs that look alike come from different tables or passages of the source.

Columns and labels:
hMT2 [1] = biological target: T1, hMT2 (Homo sapiens, UniProt P49286); assay: [35S]-GTPγS binding assay, hMT2; assay type: biochemical; conditions: for [35S]-GTPγS Emax (%) / Emax: percentage of melatonin (1 μM = 100%); for EC50: mean ± SEM, read-out: [35S]-GTPγS pEC50 (converted)
T1 construct: expressed in transfected cells; membranes or whole cells
T1 sequence (P49286 1-362): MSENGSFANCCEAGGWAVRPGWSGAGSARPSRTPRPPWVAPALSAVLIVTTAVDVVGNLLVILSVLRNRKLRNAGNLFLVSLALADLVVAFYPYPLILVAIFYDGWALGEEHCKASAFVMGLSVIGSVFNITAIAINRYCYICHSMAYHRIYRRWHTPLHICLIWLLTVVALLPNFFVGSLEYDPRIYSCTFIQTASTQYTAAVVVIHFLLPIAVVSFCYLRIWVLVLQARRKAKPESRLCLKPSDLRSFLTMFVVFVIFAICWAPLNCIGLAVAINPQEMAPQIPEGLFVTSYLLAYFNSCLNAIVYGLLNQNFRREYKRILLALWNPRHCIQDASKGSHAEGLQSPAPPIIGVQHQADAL
Description: (§1) CHO-K1 cell lines stably expressing the human MT1 or MT2 receptors were grown to confluence, harvested in PBS buffer (Gibco, Invitrogen, Saint-Aubin, France) containing 5 mM EDTA, and centrifuged at 1,000 g for 20 min (4 °C). The resulting pellet was suspended in 5 mM Tris/HCl (pH 7.4) containing 2 mM EDTA and homogenized using Kinematicapolytron. […] Protein content was determined according to Bradford using the Bio-Rad kit (Bio-Rad SA, Ivry-sur-Seine, France).
(§2) For the [^35S]-GTPγS binding assay, the membranes and compounds were diluted in the binding buffer (20 mM Hepes pH 7.4, 100 mM NaCl, 3 mM MgCl2, 3 μM GDP) in the presence of 20 μg/mL saponin in order to enhance the agonist-induced stimulation. Incubation was started by adding 0.1 nM [^35S]-GTPγS to the membranes and ligands in a final volume of 250 μL and allowed to continue for 60 min at room temperature. Non-specific binding was assessed using non-radiolabeled GTPγS (10 μM). Reactions were stopped by rapid filtration through GF/B unifilters pre-soaked with distilled water, followed by three successive washes with ice-cold buffer.

hMT1 [2] = biological target: T2, hMT1 (Homo sapiens, UniProt P48039); assay: HTRF (TR-FRET) cAMP assay, CHO-K1 cells expressing hMT1; assay type: cell-based; conditions: 5 μM forskolin; for EC50: read-out: TR-FRET-cAMP pEC50 (converted)
T2 construct: expressed in transfected cells; membranes or whole cells
Description: (§3) Cellular cAMP production was measured using cAMP dynamic HTRF kits (Cisbio Bioassays, Bedford, MA, USA) according to the manufacturer’s instructions. CHO-K1 cells stably expressing the hMT1 or hMT2 receptor were grown to confluence, harvested in PBS buffer containing 5 mM EDTA, and centrifuged at 100× g for 10 min (4 °C). […] Next, 15 μL of cAMP-d2 conjugate and 15 μL of anti-cAMP-EuK conjugate in lysis buffer were incubated for 30 min at room temperature. […] Non-specific binding was assessed using 100 μM non-labeled cAMP. The data were analyzed using the program PRISM to yield the EC50 and Emax.

hMT2 [3] = biological target: T1, hMT2; assay: HTRF (TR-FRET) cAMP assay, CHO-K1 cells expressing hMT2; assay type: cell-based; conditions: 5 μM forskolin; for EC50 / TR-FRET-cAMP Emax (%): hMT2; for EC50: read-out: TR-FRET-cAMP pEC50 (converted)
Description: as §3

hMT1 [4] = biological target: T2, hMT1; assay: [35S]-GTPγS binding assay, hMT1; assay type: biochemical; conditions: for [35S]-GTPγS Emax (%) / Emax: percentage of melatonin (1 μM = 100%); for EC50: mean ± SEM, read-out: [35S]-GTPγS pEC50 (converted)
Description: as §1, §2

hMT2 [5] = biological target: T1, hMT2; assay: [125I]-2IMLT competition binding, CHO-K1 membranes, hMT2; conditions: for Difference in affinity MT2 versus MT1: Ki/pKi better for MT2 than for MT1; for Ki: hMT2
Description: (§4) CHO-K1 cell lines stably expressing the human MT1 or MT2 receptors were grown to confluence, harvested in PBS buffer (Gibco, Invitrogen, Saint-Aubin, France) containing 5 mM EDTA, and centrifuged at 1,000 g for 20 min (4 °C). The resulting pellet was suspended in 5 mM Tris/HCl (pH 7.4) containing 2 mM EDTA and homogenized using Kinematicapolytron. The homogenate was then centrifuged (20,000 g, 30 min, 4 °C) and the resulting pellet suspended in 75 mM Tris/HCl (pH 7.4) containing 2 mM EDTA and 12.5 mM MgCl2. Protein content was determined according to Bradford using the Bio-Rad kit (Bio-Rad SA, Ivry-sur-Seine, France). Aliquots of membrane preparations were stored in re-suspension buffer (75 mM Tris/HCl pH 7.4, 2 mM EDTA, 12.5 mM MgCl2) at −80 °C until use.
(§5) The assays were described previously. […] The results were expressed as the inhibition constant Ki, taking into account the concentration of radioligand used in each experiment. Non-specific binding was defined using 10 μM melatonin. The reaction was stopped by rapid filtration through GF/B unifilters, followed by three successive washes with ice-cold buffer. The data were analyzed using the program PRISM (GraphPad Software Inc., San Diego, CA, USA).

hMT1 [6] = biological target: T2, hMT1; assay: [125I]-2IMLT competition binding, CHO-K1 membranes, hMT1; conditions: 20 pM [125I]-2IMLT, 2 h 37 °C, mean ± SEM, read-out: Affinity pKi (converted)
Description: as §4, §5

[7] = tested on: standard set of receptors and a small number of enzymatic targets; assay: Standard selectivity procedure (Cerep panel); assay type: binding; conditions: at 10 μM, cold compounds, transporters, channels, caspase-3, EGFR kinase, PKCα
Excerpt: […]

hMT1 [8] = biological target: T2, hMT1; assay: Saturation binding of iodinated radioligands, CHO-K1-hMT1 membranes; conditions: Scatchard
Description: as §4
The assays were performed in 96-well plates in 250 μL binding buffer (50 mM Tris/HCl pH 7.4, 5 mM MgCl2, 1 mM EDTA, plus BSA 0.1% for [^125I]-DIV880). The membranes, hMT1 and hMT2, were used at a final concentration of 30 μg of proteins/mL for all radioactive compounds. […]
(§6) The data were analyzed using the program PRISM (GraphPad Software Inc., San Diego, CA, USA). For the saturation assay, the binding site density (Bmax) and dissociation constant for the radioligand (Kd) were calculated according to the Scatchard method.

hMT2 [9] = biological target: T1, hMT2; assay: Saturation binding of iodinated radioligands, CHO-K1-hMT2 membranes; conditions: Scatchard; for Bmax: saturation
Description: as §4
The assays were performed in 96-well plates in 250 μL binding buffer (50 mM Tris/HCl pH 7.4, 5 mM MgCl2, 1 mM EDTA, plus BSA 0.1% for [^125I]-DIV880). The membranes, hMT1 and hMT2, were used at a final concentration of 30 μg of proteins/mL for all radioactive compounds. For all protocols, the reaction was stopped by rapid filtration through GF/B unifilters (PEI 0.1% treated for [^125I]-DIV880), followed by three successive washes with ice-cold buffer (50 mM Tris/HCl, pH 7.4).
as §6

[10] = CHO-K1, read-out: TR-FRET-cAMP Emax (%), hMT1
[11] = CHO-K1, read-out: TR-FRET-cAMP Emax (%), hMT2
[12] = 20 pM [125I]-2IMLT, 2 h 37 °C, mean ± SEM, read-out: Affinity pKi (converted)
[13] = CHO-K1, hMT2, read-out: TR-FRET-cAMP Emax (%)
[14] = hMT1, read-out: [35S]-GTPγS Emax (%)

T2 sequence (P48039 whole entry): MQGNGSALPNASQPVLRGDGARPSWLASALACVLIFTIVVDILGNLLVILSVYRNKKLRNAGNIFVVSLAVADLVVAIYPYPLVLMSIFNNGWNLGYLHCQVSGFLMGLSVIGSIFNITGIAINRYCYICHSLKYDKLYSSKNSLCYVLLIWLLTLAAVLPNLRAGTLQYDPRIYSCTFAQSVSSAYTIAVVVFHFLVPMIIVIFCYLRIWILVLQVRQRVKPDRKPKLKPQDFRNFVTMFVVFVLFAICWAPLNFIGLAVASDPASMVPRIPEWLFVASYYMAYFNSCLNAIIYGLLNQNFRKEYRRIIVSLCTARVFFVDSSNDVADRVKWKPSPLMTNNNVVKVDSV

COc1ccc2[nH]c(I)c(CCNC(C)=O)c2c1 [2IMLT, 2-iodomelatonin, reference compound]
[35S]-GTPγS Emax (%) (hMT2 [1]): 121 ± 13% | Emax (hMT1 [2]; [10]): ~100% | Emax (hMT2 [3]; [11]): ~100% | [35S]-GTPγS Emax (%) (hMT1 [4]; hMT1): 108 ± 3% | Emax (hMT1 [4]; read-out: [35S]-GTPγS Emax (%), hMT1): > 100%

COc1cc(Br)c(Cc2cc(OC)c(OC)cc2CC(=O)OC(C)(C)C)cc1OC [DIV879, Tert-butyl 2-(2-[(2-bromo-4,5-dimethoxyphenyl)methyl]-4,5-dimethoxyphenyl) Acetate]
EC50 (hMT2 [1]): 12.3 nM | Emax (hMT2 [1]): 58 ± 2% | Difference in affinity MT2 versus MT1 (hMT2 [5]): at least 2 logs | Ki (hMT2 [5]; [12]): 7.24 nM | Ki (hMT1 [6]): 562 nM | EC50 (hMT1 [4]; hMT1): > 10000 nM

COc1cc(I)c(Cc2cc(OC)c(OC)cc2CC(=O)OC(C)(C)C)cc1OC [DIV880]
EC50 (hMT2 [1]): 10.7 nM | Emax (hMT2 [1]): 67 ± 8% | EC50 (hMT1 [2]; hMT1): > 10000 nM | Difference in affinity MT2 versus MT1 (hMT2 [5]): 2 logs | Ki (hMT2 [5]; [12]): 9.55 nM | Ki (hMT2 [5]; approximate range in text, read-out: affinity for MT2 (range given)): ~10 nM | Ki (hMT1 [6]): 832 nM | Emax (hMT2 [3]; [13]): 97 ± 1% | EC50 (hMT2 [3]): 16.2 nM | EC50 (hMT1 [4]; hMT1): 1260 nM | Emax (hMT1 [4]; [14]): 10 ± 1% | effect on selectivity panel targets [7]: less than 20%

COc1ccc2[nH]c(-c3cccc4ccccc34)c(CCNC(=O)CI)c2n1 [S70254, 2-iodo-N-2-[5-methoxy-2-(naphthalen-1-yl)-1H-pyrrolo[3,2-b]pyridine-3-yl] Acetamide]
EC50 (hMT2 [1]): 2.04 nM | Emax (hMT2 [1]): 43 ± 1% | Emax (hMT1 [2]; CHO-K1, hMT1, read-out: TR-FRET-cAMP Emax (%)): 78 ± 12% | EC50 (hMT1 [2]; hMT1): 1450 nM | Ki (hMT2 [5]; [12]): 1.86 nM | Ki (hMT1 [6]): 661 nM | Emax (hMT2 [3]; [13]): 73% | TR-FRET-cAMP Emax (%) (hMT2 [3]): 76.5 ± 1% | EC50 (hMT2 [3]): 33.9 nM | EC50 (hMT1 [4]; hMT1): 79.4 nM | Emax (hMT1 [4]; [14]): 15 ± 2% | effect on selectivity panel targets [7]: less than 20%

COc1ccc2[nH]cc(CCNC(=O)CI)c2c1 [SD6, N-[2-(5-methoxy-1H-indol-3-yl)ethyl]iodoacetamide]
Emax (hMT2 [1]): > 100% | [35S]-GTPγS Emax (%) (hMT2 [1]): 114 ± 16% | Emax (hMT1 [2]; [10]): ~100% | TR-FRET-cAMP Emax (%) (hMT1 [2]; hMT1): 103 ± 10% | Emax (hMT2 [3]; [11]): ~100% | TR-FRET-cAMP Emax (%) (hMT2 [3]): 103 ± 1% | Bmax (hMT1 [8]): 276 fmol/mg of protein | [35S]-GTPγS Emax (%) (hMT1 [4]; hMT1): 115 ± 10% | Emax (hMT1 [4]; [14]): > 100%

COc1ccc2[nH]c([125I])c(CCNC(C)=O)c2c1 [[^125I]-2IMLT, 2-[^125I]-iodomelatonin]
Bmax (hMT2 [9]): 1,998 ± 318 fmol/mg of protein | Bmax (hMT1 [8]): 688 fmol/mg of protein and 688 ± 153 fmol/mg of protein

COc1ccc2[nH]c(-c3cccc4ccccc34)c(CCNC(=O)C[125I])c2n1 [[^125I]-S70254]
pKd (hMT2 [9]; saturation 0.01–2 nM radioligand): 9.61 ± 0.14 | Bmax (hMT2 [9]): 1,778 ± 87 fmol/mg of protein
